Article PMC6437697 (Journal of Medicinal Chemistry, 2019)

Key:
Assay in all cases: KINOMEscan
Type in all cases: binding
Settings in all cases: read-out: % control activity remaining
SRPK3 = target: T1, SRPK3 (Homo sapiens, UniProt Q9UPE1)
T1 construct: purchased Eurofins DiscoverX KINOMEscan

STK35 = target: T2, STK35 (Homo sapiens, UniProt Q8TDR2)
T2 construct: purchased Eurofins DiscoverX KINOMEscan

NEK2 = target: T3, NEK2 (Homo sapiens, UniProt P51955)
T3 construct: purchased Eurofins DiscoverX KINOMEscan
T3 sequence (P51955 1-445): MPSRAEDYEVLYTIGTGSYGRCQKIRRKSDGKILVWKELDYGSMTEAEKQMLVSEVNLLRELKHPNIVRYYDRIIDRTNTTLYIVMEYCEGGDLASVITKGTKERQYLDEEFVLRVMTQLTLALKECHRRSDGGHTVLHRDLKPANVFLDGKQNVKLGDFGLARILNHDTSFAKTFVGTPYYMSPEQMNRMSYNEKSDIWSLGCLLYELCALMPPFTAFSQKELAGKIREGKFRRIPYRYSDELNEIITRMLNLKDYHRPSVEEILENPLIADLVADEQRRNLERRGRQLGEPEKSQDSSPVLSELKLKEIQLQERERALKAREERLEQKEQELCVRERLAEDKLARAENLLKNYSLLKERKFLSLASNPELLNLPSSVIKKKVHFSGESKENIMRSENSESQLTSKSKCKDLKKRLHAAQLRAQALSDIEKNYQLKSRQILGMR

CTK = target: T4, CTK (Homo sapiens, UniProt P42679)
T4 construct: purchased Eurofins DiscoverX KINOMEscan
T4 sequence (P42679 1-507): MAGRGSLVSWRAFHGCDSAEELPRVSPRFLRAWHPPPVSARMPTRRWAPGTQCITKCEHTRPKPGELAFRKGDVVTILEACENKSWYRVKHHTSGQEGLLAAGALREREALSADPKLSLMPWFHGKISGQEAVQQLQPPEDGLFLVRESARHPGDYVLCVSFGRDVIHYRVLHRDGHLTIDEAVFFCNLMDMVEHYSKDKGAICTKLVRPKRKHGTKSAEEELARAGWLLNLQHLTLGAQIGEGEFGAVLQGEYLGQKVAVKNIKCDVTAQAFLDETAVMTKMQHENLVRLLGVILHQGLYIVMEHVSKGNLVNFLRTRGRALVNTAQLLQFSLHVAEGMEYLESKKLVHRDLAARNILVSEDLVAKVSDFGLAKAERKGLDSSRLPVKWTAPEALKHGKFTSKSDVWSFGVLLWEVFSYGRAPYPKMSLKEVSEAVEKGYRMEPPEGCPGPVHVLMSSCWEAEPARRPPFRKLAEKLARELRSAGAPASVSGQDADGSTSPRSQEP

MET(Y1235D) = target: T5, MET(Y1235D) (Homo sapiens, UniProt P08581, Y1235D)
T5 construct: purchased Eurofins DiscoverX KINOMEscan

IKK-alpha = target: T6, IKK-alpha (Homo sapiens, UniProt O15111)
T6 construct: purchased Eurofins DiscoverX KINOMEscan
T6 sequence (O15111 1-745): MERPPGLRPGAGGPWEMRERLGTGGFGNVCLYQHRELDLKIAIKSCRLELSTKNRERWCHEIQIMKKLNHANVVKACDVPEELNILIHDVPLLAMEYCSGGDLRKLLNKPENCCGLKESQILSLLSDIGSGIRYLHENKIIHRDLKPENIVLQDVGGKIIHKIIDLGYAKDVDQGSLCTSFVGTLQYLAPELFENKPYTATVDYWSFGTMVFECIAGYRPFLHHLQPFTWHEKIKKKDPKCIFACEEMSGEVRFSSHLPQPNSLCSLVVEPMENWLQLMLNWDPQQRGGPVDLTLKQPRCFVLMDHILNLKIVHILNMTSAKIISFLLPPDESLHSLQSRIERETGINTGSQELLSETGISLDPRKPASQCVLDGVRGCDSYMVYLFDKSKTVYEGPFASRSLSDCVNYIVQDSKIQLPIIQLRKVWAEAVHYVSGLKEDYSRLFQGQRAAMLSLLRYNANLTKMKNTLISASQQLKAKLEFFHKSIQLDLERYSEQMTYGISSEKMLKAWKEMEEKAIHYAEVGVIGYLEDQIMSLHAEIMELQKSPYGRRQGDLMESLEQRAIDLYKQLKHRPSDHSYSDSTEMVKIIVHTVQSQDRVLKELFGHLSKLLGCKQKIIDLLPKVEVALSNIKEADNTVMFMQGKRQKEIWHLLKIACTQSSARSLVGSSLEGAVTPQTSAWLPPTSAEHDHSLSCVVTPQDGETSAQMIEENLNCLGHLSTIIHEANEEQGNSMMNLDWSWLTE

PIK3CA(C420R) = target: T7, PIK3CA(C420R) (Homo sapiens, UniProt P42336, C420R)
T7 construct: purchased Eurofins DiscoverX KINOMEscan

DDR2 = target: T8, DDR2 (Homo sapiens, UniProt Q16832)
T8 construct: purchased Eurofins DiscoverX KINOMEscan
T8 sequence (Q16832 22-855): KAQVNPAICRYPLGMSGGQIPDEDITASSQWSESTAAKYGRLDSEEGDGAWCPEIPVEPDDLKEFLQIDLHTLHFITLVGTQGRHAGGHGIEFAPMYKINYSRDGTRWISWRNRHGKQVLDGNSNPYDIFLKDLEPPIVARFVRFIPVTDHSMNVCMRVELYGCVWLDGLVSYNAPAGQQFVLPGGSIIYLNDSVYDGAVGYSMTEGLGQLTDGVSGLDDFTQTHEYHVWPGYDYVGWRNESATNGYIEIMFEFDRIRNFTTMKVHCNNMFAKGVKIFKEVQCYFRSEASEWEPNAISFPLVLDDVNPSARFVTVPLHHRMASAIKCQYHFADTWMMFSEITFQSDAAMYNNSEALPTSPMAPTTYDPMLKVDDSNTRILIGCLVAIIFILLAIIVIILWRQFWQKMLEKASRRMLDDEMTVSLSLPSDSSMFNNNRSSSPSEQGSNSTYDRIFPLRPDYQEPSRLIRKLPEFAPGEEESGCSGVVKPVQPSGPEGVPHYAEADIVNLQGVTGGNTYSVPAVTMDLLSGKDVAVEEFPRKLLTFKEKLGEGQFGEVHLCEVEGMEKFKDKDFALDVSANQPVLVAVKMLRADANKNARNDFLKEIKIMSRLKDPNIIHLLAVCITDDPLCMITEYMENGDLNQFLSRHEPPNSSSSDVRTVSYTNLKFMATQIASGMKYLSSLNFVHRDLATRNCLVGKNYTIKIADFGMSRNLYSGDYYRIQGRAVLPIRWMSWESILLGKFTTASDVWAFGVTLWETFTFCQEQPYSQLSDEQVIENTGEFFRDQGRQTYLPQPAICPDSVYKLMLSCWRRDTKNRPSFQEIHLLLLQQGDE

EPHA7 = target: T9, EPHA7 (Homo sapiens, UniProt Q15375)
T9 construct: purchased Eurofins DiscoverX KINOMEscan

GSK3A = target: T10, GSK3A (Homo sapiens, UniProt P49840)
T10 construct: purchased Eurofins DiscoverX KINOMEscan
T10 sequence (P49840 whole entry): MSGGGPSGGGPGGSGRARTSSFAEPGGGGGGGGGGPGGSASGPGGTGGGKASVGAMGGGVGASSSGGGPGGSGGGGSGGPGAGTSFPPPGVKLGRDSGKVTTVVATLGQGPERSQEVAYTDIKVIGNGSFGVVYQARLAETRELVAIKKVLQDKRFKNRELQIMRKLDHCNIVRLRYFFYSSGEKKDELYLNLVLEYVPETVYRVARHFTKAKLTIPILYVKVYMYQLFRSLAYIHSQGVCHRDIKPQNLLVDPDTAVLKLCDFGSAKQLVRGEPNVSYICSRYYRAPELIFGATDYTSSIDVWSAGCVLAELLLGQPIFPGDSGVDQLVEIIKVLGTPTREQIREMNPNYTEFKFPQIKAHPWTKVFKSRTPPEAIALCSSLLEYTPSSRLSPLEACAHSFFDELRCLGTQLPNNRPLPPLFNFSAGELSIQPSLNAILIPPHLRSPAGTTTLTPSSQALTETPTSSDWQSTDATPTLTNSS

T7 sequence (P42336 whole entry C420R): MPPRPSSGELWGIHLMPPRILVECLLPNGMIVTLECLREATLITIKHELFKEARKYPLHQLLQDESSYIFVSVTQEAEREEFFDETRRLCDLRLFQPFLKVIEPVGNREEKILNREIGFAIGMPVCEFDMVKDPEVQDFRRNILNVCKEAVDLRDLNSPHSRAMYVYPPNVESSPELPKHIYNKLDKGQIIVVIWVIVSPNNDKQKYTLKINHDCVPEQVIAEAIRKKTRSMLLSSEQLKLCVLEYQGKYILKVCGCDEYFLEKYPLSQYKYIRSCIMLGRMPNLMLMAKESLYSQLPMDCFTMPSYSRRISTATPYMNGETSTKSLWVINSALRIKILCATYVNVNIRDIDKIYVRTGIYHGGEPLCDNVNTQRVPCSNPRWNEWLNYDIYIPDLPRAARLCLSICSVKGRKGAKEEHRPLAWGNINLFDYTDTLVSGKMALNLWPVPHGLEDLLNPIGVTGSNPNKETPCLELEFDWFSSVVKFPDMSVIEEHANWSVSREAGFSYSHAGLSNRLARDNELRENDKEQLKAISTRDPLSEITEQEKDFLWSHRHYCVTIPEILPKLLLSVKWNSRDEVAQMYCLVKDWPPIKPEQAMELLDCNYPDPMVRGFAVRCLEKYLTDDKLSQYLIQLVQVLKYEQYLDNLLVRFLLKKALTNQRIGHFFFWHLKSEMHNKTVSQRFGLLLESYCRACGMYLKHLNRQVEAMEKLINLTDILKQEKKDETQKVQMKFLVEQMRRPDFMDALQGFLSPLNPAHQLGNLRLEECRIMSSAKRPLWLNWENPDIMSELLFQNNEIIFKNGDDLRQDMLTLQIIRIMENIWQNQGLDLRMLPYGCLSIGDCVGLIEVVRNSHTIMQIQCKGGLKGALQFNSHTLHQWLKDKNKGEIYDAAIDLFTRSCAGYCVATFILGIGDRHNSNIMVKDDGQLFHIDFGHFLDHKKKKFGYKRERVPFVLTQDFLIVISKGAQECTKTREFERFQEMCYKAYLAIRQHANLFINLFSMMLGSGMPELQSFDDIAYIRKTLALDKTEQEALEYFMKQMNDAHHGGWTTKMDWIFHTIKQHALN
T1 sequence (Q9UPE1 whole entry): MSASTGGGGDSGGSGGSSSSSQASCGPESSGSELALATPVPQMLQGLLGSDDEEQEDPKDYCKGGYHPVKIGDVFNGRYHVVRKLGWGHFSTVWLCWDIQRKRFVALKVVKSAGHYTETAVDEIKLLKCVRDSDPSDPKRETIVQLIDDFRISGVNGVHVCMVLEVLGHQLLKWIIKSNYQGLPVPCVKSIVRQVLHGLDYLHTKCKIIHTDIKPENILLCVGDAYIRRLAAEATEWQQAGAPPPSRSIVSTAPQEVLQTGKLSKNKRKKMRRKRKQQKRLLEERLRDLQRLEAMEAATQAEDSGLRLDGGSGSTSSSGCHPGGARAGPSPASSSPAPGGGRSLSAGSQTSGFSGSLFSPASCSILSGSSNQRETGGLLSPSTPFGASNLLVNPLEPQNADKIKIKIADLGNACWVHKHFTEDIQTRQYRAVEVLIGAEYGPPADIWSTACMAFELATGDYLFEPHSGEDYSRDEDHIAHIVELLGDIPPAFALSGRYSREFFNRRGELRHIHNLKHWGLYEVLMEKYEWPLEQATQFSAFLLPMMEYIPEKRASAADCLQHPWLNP
T5 sequence (P08581 25-1390 Y1235D): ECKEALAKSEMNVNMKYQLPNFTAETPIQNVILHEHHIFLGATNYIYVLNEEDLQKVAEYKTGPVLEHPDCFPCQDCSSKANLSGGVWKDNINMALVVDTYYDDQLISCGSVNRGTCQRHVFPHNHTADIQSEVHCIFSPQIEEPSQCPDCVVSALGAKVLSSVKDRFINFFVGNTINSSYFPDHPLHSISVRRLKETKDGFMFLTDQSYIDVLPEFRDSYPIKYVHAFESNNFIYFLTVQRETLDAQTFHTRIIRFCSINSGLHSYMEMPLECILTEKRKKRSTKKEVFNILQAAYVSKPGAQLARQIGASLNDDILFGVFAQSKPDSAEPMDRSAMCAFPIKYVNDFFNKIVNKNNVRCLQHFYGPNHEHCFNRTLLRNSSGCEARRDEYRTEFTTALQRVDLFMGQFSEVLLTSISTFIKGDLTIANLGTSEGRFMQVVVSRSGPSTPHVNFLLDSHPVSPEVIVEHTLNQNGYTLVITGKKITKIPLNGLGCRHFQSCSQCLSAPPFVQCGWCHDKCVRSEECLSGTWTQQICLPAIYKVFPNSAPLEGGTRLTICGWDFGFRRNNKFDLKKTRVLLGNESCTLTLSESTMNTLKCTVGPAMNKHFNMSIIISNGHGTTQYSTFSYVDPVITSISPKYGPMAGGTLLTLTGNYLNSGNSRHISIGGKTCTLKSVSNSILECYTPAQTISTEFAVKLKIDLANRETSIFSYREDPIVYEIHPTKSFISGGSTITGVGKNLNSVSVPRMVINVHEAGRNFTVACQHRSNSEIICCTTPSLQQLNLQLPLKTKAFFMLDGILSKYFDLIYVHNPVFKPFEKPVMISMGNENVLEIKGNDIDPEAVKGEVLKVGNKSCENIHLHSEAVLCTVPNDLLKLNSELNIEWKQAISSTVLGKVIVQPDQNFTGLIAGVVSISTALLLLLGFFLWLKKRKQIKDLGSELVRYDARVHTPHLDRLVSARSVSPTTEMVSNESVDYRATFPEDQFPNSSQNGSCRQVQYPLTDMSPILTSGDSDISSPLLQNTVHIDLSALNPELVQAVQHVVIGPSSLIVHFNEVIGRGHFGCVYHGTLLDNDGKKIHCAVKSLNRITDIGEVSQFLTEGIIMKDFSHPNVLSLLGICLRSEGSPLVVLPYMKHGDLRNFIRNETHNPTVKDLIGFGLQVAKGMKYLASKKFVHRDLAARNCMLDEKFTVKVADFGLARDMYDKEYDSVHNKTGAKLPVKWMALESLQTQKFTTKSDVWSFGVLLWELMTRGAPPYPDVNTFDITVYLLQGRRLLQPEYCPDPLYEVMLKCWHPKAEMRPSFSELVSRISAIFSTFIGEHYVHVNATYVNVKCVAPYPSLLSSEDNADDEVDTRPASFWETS
T2 sequence (Q8TDR2 whole entry): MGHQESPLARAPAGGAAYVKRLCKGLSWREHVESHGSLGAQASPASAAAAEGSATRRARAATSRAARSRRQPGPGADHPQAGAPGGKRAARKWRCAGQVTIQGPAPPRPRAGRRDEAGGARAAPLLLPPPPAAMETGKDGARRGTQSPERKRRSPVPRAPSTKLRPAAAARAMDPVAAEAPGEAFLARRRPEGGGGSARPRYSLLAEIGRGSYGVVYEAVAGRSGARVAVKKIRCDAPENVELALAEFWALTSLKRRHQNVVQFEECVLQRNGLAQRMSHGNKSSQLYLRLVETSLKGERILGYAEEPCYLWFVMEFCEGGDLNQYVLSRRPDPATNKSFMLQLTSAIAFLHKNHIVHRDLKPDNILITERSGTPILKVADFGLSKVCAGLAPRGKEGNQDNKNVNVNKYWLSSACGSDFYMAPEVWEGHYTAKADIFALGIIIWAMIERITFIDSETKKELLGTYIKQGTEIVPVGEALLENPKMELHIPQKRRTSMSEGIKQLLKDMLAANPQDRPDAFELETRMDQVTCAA
T9 sequence (Q15375 28-998): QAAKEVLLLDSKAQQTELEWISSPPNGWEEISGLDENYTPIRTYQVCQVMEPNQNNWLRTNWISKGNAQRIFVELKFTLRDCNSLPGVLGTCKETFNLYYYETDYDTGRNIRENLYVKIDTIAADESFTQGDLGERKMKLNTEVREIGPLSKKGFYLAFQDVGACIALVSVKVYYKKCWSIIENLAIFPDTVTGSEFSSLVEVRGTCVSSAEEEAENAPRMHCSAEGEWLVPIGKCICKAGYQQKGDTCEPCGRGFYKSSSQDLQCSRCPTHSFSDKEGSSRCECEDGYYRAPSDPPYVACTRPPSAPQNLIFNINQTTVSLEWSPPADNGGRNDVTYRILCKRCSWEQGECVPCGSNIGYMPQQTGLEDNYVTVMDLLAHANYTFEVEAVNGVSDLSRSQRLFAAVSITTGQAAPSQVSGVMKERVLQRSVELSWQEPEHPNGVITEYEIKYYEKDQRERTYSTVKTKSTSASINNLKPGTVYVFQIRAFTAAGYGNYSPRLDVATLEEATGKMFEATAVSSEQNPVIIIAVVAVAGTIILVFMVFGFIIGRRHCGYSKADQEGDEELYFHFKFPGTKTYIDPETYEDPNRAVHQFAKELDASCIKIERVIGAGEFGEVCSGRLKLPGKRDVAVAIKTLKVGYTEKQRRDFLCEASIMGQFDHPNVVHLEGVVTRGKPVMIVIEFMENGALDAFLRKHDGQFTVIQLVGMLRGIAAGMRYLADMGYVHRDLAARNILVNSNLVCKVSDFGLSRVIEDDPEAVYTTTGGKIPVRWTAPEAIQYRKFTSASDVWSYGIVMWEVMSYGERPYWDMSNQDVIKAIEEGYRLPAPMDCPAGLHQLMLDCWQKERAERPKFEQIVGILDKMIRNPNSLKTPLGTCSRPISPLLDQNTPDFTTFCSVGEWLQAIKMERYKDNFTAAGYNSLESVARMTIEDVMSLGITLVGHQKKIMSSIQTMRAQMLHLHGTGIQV

Row | SMILES | remaining binding at 1 µM (SRPK3) | remaining binding at 1 µM (STK35) | remaining binding at 1 µM (NEK2) | remaining binding at 1 µM (CTK) | remaining binding at 1 µM (MET(Y1235D)) | remaining binding at 1 µM (IKK-alpha) | remaining binding at 1 µM (PIK3CA(C420R)) | remaining binding at 1 µM (DDR2) | remaining binding at 1 µM (EPHA7) | remaining binding at 1 µM (GSK3A)
1 | Clc1cc(NCC2CC2)c2ncc(-c3ccc4[nH]ncc4c3)n2n1 [compound 2, 6-Chloro-N-(cyclopropylmethyl)-3-(1H-indazol-5-yl)imidazo[1,2-b]pyridazin-8-amine] | 49% | 77% | 100% | 91% | 100% | 76% | 88% | 86% | 94% | 93%
2 | O=C(CN1CCOCC1)N[C@H]1CC[C@H](Nc2cc(Cl)nn3c(-c4ccc5[nH]ncc5c4)cnc23)CC1 [compound 26] | 66% | 97% | 92% | 95% | 97% | 100% | 89% | 98% | 97% | 100%
3 | CN1CCC(CNc2cc(Cl)nn3c(-c4cc5nc(Nc6ccccc6)[nH]c5cc4F)cnc23)CC1 [compound 31, 6-Chloro-3-(6-fluoro-2-(phenylamino)-1H-benzo[d]imidazol-5-yl)-N-((1-methylpiperidin-4-yl)methyl)imidazo[1,2-b]pyridazin-8-amine] | 100% | 100% | 92% | 69% | 99% | 90% | 85% | 100% | 94% | 84%
